# Experimental data taken from ChEMBL document CHEMBL5252598, “Armeniaspirol analogues disrupt the electrical potential (ΔΨ) of the proton motive force” (Bioorg Med Chem Lett, 2023).
# Calls of active or inactive are those of the source. No cut-off for these calls is given here.
# Experiments:
# Cell membrane [1] = assay: Induction of membrane depolarization in methicillin-resistant Staphylococcus aureus USA300 by […] dye-based fluorescence assay; format: subcellular
# Staphylococcus aureus = assay: Antibacterial activity against Staphylococcus aureus USA300 assessed as bacterial growth inhibition by checkerboard assay; format: functional
# Cell membrane [2] = assay: Induction of membrane depolarization in methicillin-resistant Staphylococcus aureus USA300 assessed as measuring minimum effective concentration by DiSC3(5) dye-based fluorescence assay
# Cell membrane [3] = assay: Induction of membrane depolarization in methicillin-resistant Staphylococcus aureus USA300 assessed as disruption of transmembrane electrical potential by DiSC3(5) dye-based fluorescence assay
# Escherichia coli [4] = assay: Antibacterial activity against Escherichia coli harbouring TolC-deficient mutant assessed as fractional inhibitory concentration in presence of tetracycline by checker board assay; format: functional
# Escherichia coli [5] = assay: Antagonistic antibacterial activity against Escherichia coli harbouring TolC-deficient mutant assessed as fractional inhibitory concentration in presence of kanamycin by checker board assay; format: functional
# Cell membrane [6] = assay: Induction of membrane depolarization in methicillin-resistant Staphylococcus aureus USA300 assessed as disruption of transmembrane proton gradient by DiSC3(5) dye-based fluorescence assay
# Bacteria [7] = assay: Inhibition of ATP-dependent ClpYQ proteases (unknown origin)
# Bacteria [8] = assay: Inhibition of ATP-dependent ClpXP proteases (unknown origin)
Compound,EC50 (Cell membrane [1]),MIC (Staphylococcus aureus),MEC (Cell membrane [2]),other results
CCCCCCc1c(OC)c(Cl)cc2c1OC1(C2=O)C(Cl)=C(Cl)C(=O)N1C (stereo not drawn),2.04 µg/mL,> 32 µg/mL,4 µg/mL,
CCCCCCc1c(OC)c(Cl)cc2c1OC1(C2)NC(=O)C(Cl)=C1Cl (stereo not drawn),,,,Activity (Cell membrane [3]): Active
CCCCCCc1c(O)c(Cl)cc2c1OC1(C2=O)C(Cl)=C(Cl)C(=O)N1Cc1ccc(C(F)(F)F)cc1 (stereo not drawn),0.3 µg/mL,2 µg/mL,0.125 µg/mL,
CCCCCCc1c(O)c(Cl)cc2c1OC1(C2=O)C(Cl)=C(Cl)C(=O)N1C (stereo not drawn),0.42 µg/mL,4 µg/mL,0.5 µg/mL,FIC (Escherichia coli [4]): 0.656; Activity (Cell membrane [3]): Active; FIC (Escherichia coli [5]): >4
CO[C@@H]1C[C@@H](C[C@H]2CC[C@H](C)[C@H]([C@@H](C)C(=O)O)O2)O[C@]2(O[C@](C)([C@H]3CC[C@@](C)([C@@H]4O[C@@H]([C@H]5O[C@@](O)(CO)[C@H](C)C[C@@H]5C)C[C@@H]4C)O3)C[C@H]2C)[C@@H]1C,,,,Activity (Cell membrane [6]): Active
CCCCCCN1C(=O)C(Cl)=C(Cl)C12Oc1c(cc(Cl)c(O)c1C)C2=O (stereo not drawn),0.17 µg/mL,4 µg/mL,0.5 µg/mL,
C=CCN1C(=O)C(Cl)=C(Cl)C12Oc1c(cc(Cl)c(O)c1CCCCCC)C2=O (stereo not drawn),0.23 µg/mL,4 µg/mL,0.25 µg/mL,
Cc1c(O)c(Cl)cc2c1OC1(C2=O)C(Cl)=C(Cl)C(=O)N1Cc1ccccc1 (stereo not drawn),3.2 µg/mL,32 µg/mL,4 µg/mL,
CCCCCCc1c(OC)c(Cl)cc2c1OC1(C2=O)C(Cl)=C(Cl)C(=O)N1CCCCCC (stereo not drawn),0.54 µg/mL,4 µg/mL,0.125 µg/mL,inhibition (Bacteria [7]): inactive; inhibition (Bacteria [8]): inactive
Cc1c(O)c(Cl)cc2c1OC1(C2=O)C(Cl)=C(Cl)C(=O)N1Cc1ccc(C(F)(F)F)cc1 (stereo not drawn),2.45 µg/mL,16 µg/mL,2 µg/mL,
Cc1c(O)c(Cl)cc2c1OC1(C2=O)C(Cl)=C(Cl)C(=O)N1C (stereo not drawn),> 8 µg/mL,> 32 µg/mL,8 µg/mL,
CCCCCCc1c(O)c(Cl)cc2c1OC1(C2=O)C(Cl)=C(Cl)C(=O)N1Cc1ccccc1 (stereo not drawn),0.39 µg/mL,1 µg/mL,0.5 µg/mL,
CCCCCCCCCCCCN1C(=O)C(Cl)=C(Cl)C12Oc1c(cc(Cl)c(O)c1C)C2=O (stereo not drawn),0.28 µg/mL,1 µg/mL,0.25 µg/mL,
CCCCCCc1c(O)c(Cl)cc2c1OC1(C2=O)C(Cl)=C(Cl)C(=O)N1CCc1ccccc1 (stereo not drawn),0.12 µg/mL,0.5 µg/mL,0.125 µg/mL,
CCCCCCc1c(O)c(Cl)cc2c1OC1(C2=O)C(Cl)=C(Cl)C(=O)N1Cc1ccc(C)cc1 (stereo not drawn),0.07 µg/mL,0.5 µg/mL,0.125 µg/mL,FIC (Escherichia coli [5]): >4
C=CCN1C(=O)C(Cl)=C(Cl)C12Oc1c(cc(Cl)c(O)c1C)C2=O (stereo not drawn),> 8 µg/mL,> 32 µg/mL,8 µg/mL,
CCCCCCCCCCCCN1C(=O)C(Cl)=C(Cl)C12Oc1c(cc(Cl)c(O)c1CCCCCC)C2=O (stereo not drawn),> 8 µg/mL,16 µg/mL,> 1 µg/mL,
CC(C)[C@@H]1NC(=O)[C@H](C)OC(=O)[C@@H](C(C)C)NC(=O)[C@@H](C(C)C)OC(=O)[C@H](C(C)C)NC(=O)[C@H](C)OC(=O)[C@@H](C(C)C)NC(=O)[C@@H](C(C)C)OC(=O)[C@H](C(C)C)NC(=O)[C@H](C)OC(=O)[C@@H](C(C)C)NC(=O)[C@@H](C(C)C)OC1=O,,,,Activity (Cell membrane [3]): Active
CCCCCCc1c(O)c(Cl)cc2c1OC1(C2=O)C(Cl)=C(Cl)C(=O)N1CCCCCC (stereo not drawn),0.07 µg/mL,1 µg/mL,0.0312 µg/mL,FIC (Escherichia coli [5]): >4
